Test results published in patent US20120178666A1 (SHIRE LLC, priority 2009, published 2012).
Like-named read-outs stand apart in the source and are kept apart here.

Legend:
[1] = Prodrug stability in simulated gastric fluid (USP); conditions: 37° C.
Procedure: (§1) The remaining concentrations of the prodrugs were then assayed by HPLC.

[2] = Prodrug stability in simulated intestinal fluid (USP); conditions: 37° C.
Procedure: as §1

[3] = Pharmacokinetics in rats in hepatic portal and tail veins following oral administration; format: in vivo; conditions: rat, equimolar dose
Procedure: Rats were surgically prepared under isofluorane anaesthesia by attaching a silicon catheter to the portal vein then exteriorising it at the nape of the neck with a blood collection port attached.
At each sampling time serial point blood samples (approximately 0.2 mL) were taken simultaneously from the lateral tail vein cannula and the hepatic portal cannula. After collection of the final blood sample each animal was killed by cervical dislocation. Blood samples were collected at 15, 30 minutes and 1, 2, 4, 8 and 24 hours post dose.
Pharmacokinetic parameters in portal and systemic plasma were derived by non-compartmental analysis (linear/logarithmic trapezoidal) using WinNonlin (Version 4.1) software.

[4] = Comparative pharmacokinetic screening study of guanfacine prodrugs in the monkey; conditions: oral gavage
Procedure: Blood samples were taken on 4 sampling occasions at various times up to 6 hours after administration and submitted to analysis for the parent drug and prodrug using a qualified LC-MS-MS assay.

gut motility = experiment: Charcoal propulsion test (gut motility); format: in vivo, rat
Procedure: The effect of a drug on gut motility can be studied by means of the charcoal propulsion test.
The method used was based on that described by Takemori et al. (J. Pharmacol. Exp. Ther. 169:39, 1969). Test treatments were administered orally 60 minutes prior to an oral dose of a 10% suspension of charcoal in 2.5% gum Arabic (2 ml/kg). Twenty minutes after dosing with charcoal, the rats were sacrificed and the entire gastrointestinal tract was removed quickly and carefully. The distance that the charcoal meal had travelled toward the caecum was measured and expressed as a percentage of the total gut length.

[5] = Comparative bioavailability study in monkeys in the fasted or fed state; format: in vivo, cynomolgus monkey; conditions: fasted vs fed
Procedure: Five male cynomolgus monkeys were used. Food was withdrawn from animals in fasted groups from the evening of the day prior to dosing until approximately 4 hours after dosing.
The formulations were prepared on the day of dosing and administered orally as soon as practicable up to a maximum of 2 hours after formulation.
Blood samples (0.5 mL) were collected from all animals pre-dose and at 0.5, 1, 2, 3, 4, 6, 8 10, 12, 16 and 24 hours after dosing.
Following processing, the resultant plasma was frozen and analysed by a qualified method. Pharmacokinetic evaluation was performed using a validated pharmacokinetic software package.

[6] = immediate release guanfacine (TENEX); cited from earlier work
[7] = Rattus norvegicus, po, read-out: % inhibition of GIT transit compard to vehicle

food effect (in words) [5] | Structure (SMILES) | % prodrug remaining following incubation for: 1 h in simulated gastric fluid pH 1.1 [1] | % prodrug remaining following incubation for: 2 h in simulated intestinal fluid pH 6.8 [2] | comparative systemic exposure to guanfacine (in words) [3] | prodrug levels in plasma (in words) [4] | inhibition at 0.1 mg/kg (gut motility; [7]) | inhibition at 0.3 mg/kg (gut motility; [7]) | inhibition at 1 mg/kg (gut motility; [7]) | time at which peak plasma drug levels are reached after dosing [6] | inhibition at 0.1 mg/kg (gut motility; Rattus norvegicus, po, Study 1, oral dose 0.1 mg/kg guanfacine free base equivalents, read-out: % inhibition of GIT transit compard to vehicle) | inhibition at 0.3 mg/kg (gut motility; Rattus norvegicus, po, Study 1, oral dose 0.3 mg/kg guanfacine free base equivalents, read-out: % inhibition of GIT transit compard to vehicle) | inhibition at 1 mg/kg (gut motility; Rattus norvegicus, po, Study 1, oral dose 1 mg/kg guanfacine free base equivalents, read-out: % inhibition of GIT transit compard to vehicle) | inhibition at 0.03 mg/kg (gut motility; Rattus norvegicus, po, Study 2, oral dose 0.03 mg/kg guanfacine free base equivalents, read-out: % inhibition of GIT transit compard to vehicle) | inhibition at 0.1 mg/kg (gut motility; Rattus norvegicus, po, Study 2, oral dose 0.1 mg/kg guanfacine free base equivalents, read-out: % inhibition of GIT transit compard to vehicle) | inhibition at 0.3 mg/kg (gut motility; Rattus norvegicus, po, Study 2, oral dose 0.3 mg/kg guanfacine free base equivalents, read-out: % inhibition of GIT transit compard to vehicle) | reduction in the distance travelled by the charcoal plug within 20 minutes compared to control group (gut motility; oral, 0.1 mg base/kg)
 | CNCC(=O)N[C@@H](COC(=O)NC(=N)NC(=O)Cc1c(Cl)cccc1Cl)C(=O)O [Compound 61, (S)-serine(guanfacine)-sarcosine carbamate di-trifluoroacetate] | 92% | 96% | similar | detectable prodrug levels in plasma | 8% | 25% | 31% |  |  |  |  |  |  |  | 
 | CNCC(=O)N[C@H](C(=O)O)[C@@H](C)OC(=O)NC(=N)NC(=O)Cc1c(Cl)cccc1Cl [Compound 63, sarcosine-(2S,3R)-threonine(guanfacine) carbamate di-trifluoroacetate] | 86% | 99% | similar | detectable prodrug levels in plasma | 0% | 13% | 49% |  |  |  |  |  |  |  | 
apparent absence of a food effect | N=C(N)NC(=O)Cc1c(Cl)cccc1Cl [Guanfacine, guanfacine, reference compound] |  |  |  |  |  |  |  | ≥ 1 h | 52% | 55% | 47% | 13% | 41% | 56% | 41-52%
